Here are results for five compounds from patent publication EP0028959A1, “5,8,13,13a-Tetrahydro-6H-dibenzo(a,g)quinolizine derivatives, process for their preparation and pharmaceutical compositions containing them” (U.R.P.H.A., priority 1979, dated 1981).

One data set concerns aorte isolée du rat. The experiment in a line: Inhibition of phenylephrine-induced contraction of isolated rat aorta. It counts as cell-based. The settings on record: read-out: EFFET SUR L'AORTE DE RAT I50. The text has this: (§1) L'inhibition des réponses contractiles maximales provoquées par la Phényléphrine ([…]) a été étudiée sur l'aorte isolée du rat préparée suivant la technique décrite par VALETTE,G. et BA MUOI, N. (Ann. Pharm. franc. 1962, 20, 557-582) et sur le segment proximal et le segment distal de l'artère caudale suivant la technique-décrite par WORCEL, M. (J. Pharmacol. Exp. Therm. 1978, 207, 210-330). Dans tous les cas, les dérivés STB se sont comportés comme de puissants antagonistes non compétitifs de la Phényléphrine. Leurs concentrations inhibitrices 50% (ID50) sont indiquées dans le tableau 2. Comme c'est le cas pour d'autres vasodilatateurs (comme l'Hydralazine), l'- artère caudale est plus sensible que l'aorte à l'effet inhibiteur des dérivés étudiés.

In data set [1] the test system is oreillette droite isolée de cobaye. The data set can be described thus: Frequency of spontaneously beating isolated guinea pig right atrium. It counts as cell-based. The settings on record: for Inhibition % du rythme de base / Inhibition % du rythme maximal en présence d'isoprotérénol: mean of 3 experiments ± erreur type; for effet sur la fréquence: result in words, comment on tableau 3. From the text:
(§2) Les effets sur le rythme et sur la concentration cardiaques ont été respectivement mis en évidence sur l'oreillette droite battant spontanément et sur l'oreillette gauche stimulée électriquement, suivant la technique décrite par GROSSMANN A., FURCHGOTT R. (J. Pharmacol. Exp. Ther. 1964, 143, 107-119).

For a further data set, the system named is muscle lisse. The following applies: Raymond Hamet 1952, 1953; cited from earlier work.
The nature of data set [2]: Acute toxicity, DL 50 in mice (Litchfield and Wilcoxon method). Type of data set: in vivo, souris. The following applies: mouse, in vivo, DL 50 and its upper and lower limits for p = 0,05. The method, then:
(§3) La DL 50 a été déterminée chez la souris par la méthode de LITCHFIELD et WILCOXON (J. Pharmacol. 1949 96, 99-113). Les dérivés étudiés ont été administrés en solution aqueuse additionnée de 7% de diméthylformamide, gavage oesophagien de 0,4 ml/20g) à des souris mâles pesant de 20 à 25g.
(§4) C'est pourquoi, il a été comparé au STB 0 par injection intrapéritonéale (même solution et même volume injectés par voie orale).

The subject of the next data set is artère caudale proximale. The experiment in a line: Inhibition of phenylephrine-induced contraction of isolated rat caudal artery, proximal segment. It counts as cell-based. The following applies: read-out: EFFET SUR L'ARTERE CAUDALE DE RAT I50 SEGMENT PROXIMAL
Source text: as §1

Data set [3] relates to oreillette gauche isolée de cobaye. The data set can be described thus: Contractile force of electrically stimulated isolated guinea pig left atrium. The following applies: for effet sur la force contractile: result in words, comment on tableau 3. Type of data set: cell-based.
Source text: as §2

Another data set relates to patients hypertendus. The following applies: Faquet, Lisle et Combaz 1954; cited from earlier work.
In data set [4] the test system is effets hypertenseurs de l'adrénaline chez le chien. The following applies: Raymond Hamet 1952, 1953; cited from earlier work.
The subject of the next data set is artère caudale distale. The data set can be described thus: Inhibition of phenylephrine-induced contraction of isolated rat caudal artery, distal segment. It counts as cell-based. The settings on record: read-out: EFFET SUR L'ARTERE CAUDALE DE RAT I50 SEGMENT DISTAL.
Source text: as §1

Data set [5] deals with rat anesthésié par l' "Inactine". The data set can be described thus: Cardiac output (thermodilution), arterial pressure and peripheral vascular resistance in Inactine-anaesthetised rats. It counts as in vivo. On the set-up: Volume éjection systolique: unit not given here. The settings on record: Après: 45 minutes after 15 mg.kg^-1 i.p., n=7, mean ± erreur type. How it is done:
Les effets sur le débit cardiaque et la résistance vasculaire périphérique ont été mesurés chez le rat anesthésié par l' "Inactine" (70 mg.kg^-1), voie intrapéritonéale). Le débit a été mesuré par thermodilution suivant la technique décrite par HONDAS et al (Path. Biol. 1979, 17 1069-1078). La pression moyenne a été enregistrée à l'aide d'un cathéter placé dans l'artère fémorale du rat. Les mesures ont été faites avant et entre 45 et 60 minutes après l'administration intra-péritonéale des anti-hypertenseurs. Chaque chiffre expérimental représente la moyenne de trois mesures successives. Les résultats, donnés à titre d'exemple dans le tableau 1, ci-après,en ce qui concerne le STB 6, montrent que l'administration de l'anti-hypertenseur provoque une importante chute de pression artérielle imputable à une diminution marquée de la résistance vasculaire périphérique et sans variation significative du débit et du rythme cardiaques, ni du volume d'éjection systolique.

For a further data set, the system named is souris. The experiment in a line: Acute toxicity, DL 50 in mice (Litchfield and Wilcoxon method). It counts as in vivo. The settings on record: result in words, comment on tableau 4. How it is done:
as §3, §4

Data set [6] in a line: Solubility in the dosing solution (aqueous solution with 7% dimethylformamide). It counts as physicochemical. The settings on record: reason why oral DL 50 could not be determined; result in words. The method, then: as §3, §4
Where [7] appears, read: contraction by phényléphrine 1.10^-5M, mean of at least 3 experiments ± erreur type.
Where [8] appears, read: contraction by phényléphrine 1.10^-6M, mean of at least 3 experiments ± erreur type.
The mark [9] stands for this setting: Concentration 5.10^-5 mole/l, stimulated at 2,5 Hz, mean of 3 experiments ± erreur type, read-out: Variation % de la force contractile de base.
The mark [10] stands for this setting: contraction by phényléphrine 5.10^-6M, mean of at least 3 experiments ± erreur type.
The mark [11] stands for this setting: read-out: Variation % de la force contractile de base.

Structures are written as SMILES. Like-named read-outs stand apart in the source and are kept apart here.

`c1ccc2c(c1)CC1c3ccccc3CCN1C2` (stereo not drawn) [STB0, 5,8,13,13a-tétrahydro-6H-dibenzo [a,g] quinolizine, reference compound]: the IC50 turned out to be 13 µM in the data set on aorte isolée du rat (setting [7]), 300 nM in the data set with artère caudale proximale (setting [8]) and 1300 nM with artère caudale distale (setting [10]). Moreover, in data set [1] (Concentration 5.10^-5 mole/l), the “Inhibition % du rythme de base” value stood at 46 ± 5%. For the same compound, the “Inhibition % du rythme maximal en présence d'isoprotérénol” value in data set [1] (Concentration 5.10^-5 mole/l) is 38 ± 6%. Besides, the “effet sur la fréquence” value in data set [1] is “déprime fortement”. Further, the “contraction du muscle lisse provoquée par l'ion K^+” value with muscle lisse is “inhibe la contraction du muscle lisse”. Moreover, the LD50 was determined as 464 mg/kg in data set [2] (po, per os, male mice 20 à 25g) and 262 mg/kg in data set [2] (ip.). The activation at 50 µM in [3] (setting [9]) is -47%. The “effet sur la force contractile” value in data set [3] is listed as “déprime fortement”. Also, the action hypotensive entry in the data set with patients hypertendus is recorded as “exerce une action hypotensive”. The “effets hypertenseurs de l'adrénaline” value in data set [4] is “inverse les effets hypertenseurs de l'adrénaline”.
As for `Oc1ccc2c(c1)CCN1Cc3ccccc3CC21` (stereo not drawn) [STB4, 3-hydroxy-5,8,13,13a-tétrahydro-6H-dibenzo [a, g] quinolizine], the IC50 stood at 26 µM in the data set with aorte isolée du rat (setting [7]), 1000 nM in the data set on artère caudale proximale (setting [8]) and 1900 nM with artère caudale distale (setting [10]). Besides, the “Inhibition % du rythme de base” value in [1] (Concentration 45.10^-5 mole/l) is reported as 13,8 ± 5,8%. Further, the “Inhibition % du rythme maximal en présence d'isoprotérénol” value in data set [1] (Concentration 45.10^-5 mole/l) is recorded as 28,7 ± 1,8%. Moreover, the “effet sur la fréquence” value in data set [1] is listed as “subsistent de façon moins marquée”. Further, in data set [2] (po, per os, male mice 20 à 25g), the 50% lethal dose (LD50) was found to be 464 mg/kg. Further, the “Variation % de la force maximale en présence d'isoprotérénol” value in data set [3] (Concentration 45.10^-5 mole/l, stimulated at 2,5 Hz, mean of 3 experiments ± erreur type) came to 0%. Besides, in data set [3] (Concentration 45.10^-5 mole/l, stimulated at 2,5 Hz, mean of 3 experiments ± erreur type, read-out: Variation % de la force contractile de base), the activation at 450 µM was found to be 0%. Moreover, the “effet sur la force contractile” value in data set [3] is “ne diminuent pas la force contractile”.
For the compound `COc1cc2c(cc1OC)CN1CCc3cc(O)ccc3C1C2` (stereo not drawn) [STB6, 3-hydroxy-10,11-diméthoxy-5,8,13,13a-tétrahydro-6H-dibenzo [a, g] quinolizine], the IC50 is 59 µM in the data set on aorte isolée du rat (setting [7]), 1100 nM in the data set with artère caudale proximale (setting [8]) and 2100 nM in the data set on artère caudale distale (setting [10]). The “Inhibition % du rythme de base” value in [1] (Concentration 5.10^-5 mole/l) amounted to 8 ± 5%. In addition, the “Inhibition % du rythme maximal en présence d'isoprotérénol” value in [1] (Concentration 5.10^-5 mole/l) was 21,6 ± 1,2%. For the same compound, the “effet sur la fréquence” value in [1] was “subsistent de façon moins marquée”. In data set [5] (n.s., Avant: 0,71 ± 0,04), the “Volume éjection systolique” value is recorded as 0,78 ± 0,035. Also, the “débit cardiaque (DC)” value in data set [5] (n.s., Avant: 237,7 ± 12,9) is listed as 293,9 ±18,7 n.s. ml, mn.kg^-1. In data set [5] (n.s., Avant: 386 ± 11), this compound displayed a Rythme of 374 ± 12 n.s. systoles/mn. In addition, in data set [5] (p≤ 0,01, Avant: 150,2 ± 3,9), the “pression artérielle moyenne (PA)” value is on record as “‡‡‡ 89,1 ± 3,3 mmHg”. In addition, the “résistance vasculaire périphérique totale (RVPt)” value in data set [5] (p≤ 0,01, Avant: 728,9 ± 29,2) is recorded as “‡‡‡ 412,2 ± 17,8 dynes.mn.cm^-5.kg^-1”. The same compound showed an LD50 in data set [2] (po, per os, male mice 20 à 25g) of 275 mg/kg. In addition, the “toxicité aiguë, comparison” value in the data set with souris was “le plus toxique”. Moreover, the “Variation % de la force maximale en présence d'isoprotérénol” value in data set [3] (Concentration 5.10^-5 mole/l, stimulated at 2,5 Hz, mean of 3 experiments ± erreur type) came to 0%. Moreover, the activation at 50 µM in data set [3] (setting [9]) worked out at 32%. Also, the “effet sur la force contractile” value in [3] is given as “augmentent fortement la force contractile”.
For `COc1cc2c(cc1OC)CN1CCc3cc(OC(=O)Cc4ccccc4)ccc3C1C2` (stereo not drawn) [STB52, 3-phénacétyloxy-10,11-diméthoxy-5,8,13,13a tétrahydro-6H-dibenzo [a, g] quinolizine], the results for the IC50 in the data set on aorte isolée du rat, with artère caudale proximale and with artère caudale distale were 51 µM, 2100 nM and 4300 nM, respectively. For the same compound, the “Inhibition % du rythme de base” value in data set [1] (Concentration 5.10^-6 mole/l) is 14 ± 7%. Moreover, in data set [1] (Concentration 5.10^-6 mole/l), the “Inhibition % du rythme maximal en présence d'isoprotérénol” value came to 17 ± 3%. Moreover, the “effet sur la fréquence” value in data set [1] is “subsistent de façon moins marquée”. This compound also came in with an LD50 in data set [2] (po, per os, male mice 20 à 25g) of 550 mg/kg. Moreover, in [3] (setting [11]), the activation at 5 µM stood at 90%. Further, the “effet sur la force contractile” value in data set [3] is on record as “augmentent fortement la force contractile”.
In the case of `O=C(Cc1ccccc1)Oc1ccc2c(c1)CCN1Cc3ccccc3CC21` (stereo not drawn) [STB69, 3-phénacétyloxy-5,8,13,13a-tétrahydro-6H-dibenzo-[a, g] quinolizine], the values for the IC50 with aorte isolée du rat, with artère caudale proximale and in the data set with artère caudale distale were 58 µM, 1500 nM and 3100 nM, respectively. Further, the “Inhibition % du rythme de base” value in [1] (Concentration 5.10^-5 mole/l) stood at 0%. Further, the “Inhibition % du rythme maximal en présence d'isoprotérénol” value in data set [1] (Concentration 5.10^-5 mole/l) is 12,5 ± 2,7%. The “effet sur la fréquence” value in data set [1] is listed as “pratiquement dépourvu d'action”. Moreover, in data set [6], the solubilité entry is recorded as “solubilité insuffisante”. The LD50 was over 650 mg/kg in data set [2] (po, per os, male mice 20 à 25g) and 378 mg/kg in [2] (ip.). Besides, the “toxicité aiguë, comparison” value in the data set on souris is reported as “le moins toxique”. Further, the activation at 50 µM in [3] (setting [11]) amounted to 12.6%. Further, in data set [3], the “effet sur la force contractile” value was “pratiquement dépourvu d'action”.
